Source: BindingDB's records for doi:10.1016/s0028-3908(05)80009-7 (Universit&Eacute, 1994)
Where a SMILES comes first, the peptide text is derived from it. [ ]: non-standard residue; d: D form. ξ: configuration not given here. Ile(3ξ) = CCC(C)[C@H](N)C(=O)O

target: T1, Pituitary adenylate cyclase-activating polypeptide (Rattus norvegicus, UniProt P13589)
T1 sequence (P13589 whole entry): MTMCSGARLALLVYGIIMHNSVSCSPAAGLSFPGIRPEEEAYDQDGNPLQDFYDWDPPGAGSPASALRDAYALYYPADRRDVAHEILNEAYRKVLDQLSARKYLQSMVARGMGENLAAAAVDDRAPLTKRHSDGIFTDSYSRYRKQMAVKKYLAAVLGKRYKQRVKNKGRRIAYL

| Compound | Ki [nM] |
| --- | --- |
| CC[C@H](C)[C@H](NC(=O)CNC(=O)[C@H](CC(=O)O)NC(=O)[C@H](CO)NC(=O)[C@@H](N)Cc1cnc[nH]1)C(=O)N[C@@H](Cc1ccccc1)C(=O)N[C@H](C(=O)N[C@@H](CC(=O)O)C(=O)N[C@@H](CO)C(=O)N[C@@H](Cc1ccc(O)cc1)C(=O)N[C@@H](CO)C(=O)N[C@@H](CCCNC(=N)N)C(=O)N[C@@H](Cc1ccc(O)cc1)C(=O)N[C@@H](CCCNC(=N)N)C(=O)N[C@@H](CCCCN)C(=O)N[C@@H](CCC(N)=O)C(=O)N[C@@H](CCSC)C(=O)N[C@@H](C)C(=O)N[C@H](C(=O)N[C@@H](CCCCN)C(=O)N[C@@H](CCCCN)C(=O)N[C@@H](Cc1ccc(O)cc1)C(=O)N[C@@H](CC(C)C)C(=O)N[C@@H](C)C(=O)N[C@@H](C)C(=O)N[C@H](C(=O)N[C@@H](CC(C)C)C(=O)NCC(=O)N[C@@H](CCCCN)C(=O)N[C@@H](CCCNC(=N)N)C(=O)N[C@@H](Cc1ccc(O)cc1)C(=O)N[C@@H](CCCCN)C(=O)N[C@@H](CCC(N)=O)C(=O)N[C@@H](CCCNC(=N)N)C(=O)N[C@H](C(=O)N[C@@H](CCCCN)C(=O)N[C@@H](CC(N)=O)C(=O)N[C@@H](CCCCN)C(N)=O)C(C)C)C(C)C)C(C)C)[C@@H](C)O [PACAP] | 0.3 |
| CCC(C)[C@H](NC(=O)CNC(=O)[C@H](CC(=O)O)NC(=O)[C@H](Cc1ccccc1)NC(=O)[C@@H](N)Cc1cnc[nH]1)C(=O)N[C@@H](Cc1ccccc1)C(=O)N[C@H](C(=O)N[C@@H](CC(=O)O)C(=O)N[C@@H](CO)C(=O)N[C@@H](Cc1ccc(O)cc1)C(=O)N[C@@H](CO)C(=O)N[C@@H](CCCN=C(N)N)C(=O)N[C@@H](Cc1ccc(O)cc1)C(=O)N[C@@H](CCCN=C(N)N)C(=O)N[C@@H](CCCCN)C(=O)N[C@@H](CCC(N)=O)C(=O)N[C@@H](CCSC)C(=O)N[C@@H](C)C(=O)N[C@H](C(=O)N[C@@H](CCCCN)C(=O)N[C@@H](CCCCN)C(=O)N[C@@H](Cc1ccc(O)cc1)C(=O)N[C@@H](CC(C)C)C(=O)N[C@@H](C)C(=O)N[C@@H](C)C(=O)N[C@H](C(=O)N[C@@H](CC(C)C)C(N)=O)C(C)C)C(C)C)[C@@H](C)O (stereo partly drawn) [[Phe2]PACAP(1-27)] | 60 |
| H-TDSYSRYRKQMAVKKYLAAVLGKRYKQRVKNK-NH2 [PACAP(7-38)] | 10 |
| H-TDSYSRYRKQMAVKKYLAAVL-NH2 [PACAP(6-27)] | 3000 |
| CC[C@H](C)[C@H](NC(=O)CNC(=O)[C@H](CC(=O)O)NC(=O)[C@H](CCCN=C(N)N)NC(=O)[C@@H](N)Cc1cnc[nH]1)C(=O)N[C@@H](Cc1ccccc1)C(=O)N[C@H](C(=O)N[C@@H](CC(=O)O)C(=O)N[C@@H](CO)C(=O)N[C@@H](Cc1ccc(O)cc1)C(=O)N[C@@H](CO)C(=O)N[C@@H](CCCN=C(N)N)C(=O)N[C@@H](Cc1ccc(O)cc1)C(=O)N[C@@H](CCCN=C(N)N)C(=O)N[C@@H](CCCCN)C(=O)N[C@@H](CCC(N)=O)C(=O)N[C@@H](CCSC)C(=O)N[C@@H](C)C(=O)N[C@H](C(=O)N[C@@H](CCCCN)C(=O)N[C@@H](CCCCN)C(=O)N[C@@H](Cc1ccc(O)cc1)C(=O)N[C@@H](CC(C)C)C(=O)N[C@@H](C)C(=O)N[C@@H](C)C(=O)N[C@H](C(=O)N[C@@H](CC(C)C)C(N)=O)C(C)C)C(C)C)[C@@H](C)O [[Arg2]PACAP(1-27)] | 1000 |
| CCC(C)[C@H](NC(=O)CNC(=O)[C@@H](N)CC(=O)O)C(=O)N[C@@H](Cc1ccccc1)C(=O)N[C@H](C(=O)N[C@@H](CC(=O)O)C(=O)N[C@@H](CO)C(=O)N[C@@H](Cc1ccc(O)cc1)C(=O)N[C@@H](CO)C(=O)N[C@@H](CCCN=C(N)N)C(=O)N[C@@H](Cc1ccc(O)cc1)C(=O)N[C@@H](CCCN=C(N)N)C(=O)N[C@@H](CCCCN)C(=O)N[C@@H](CCC(N)=O)C(=O)N[C@@H](CCSC)C(=O)N[C@@H](C)C(=O)N[C@H](C(=O)N[C@@H](CCCCN)C(=O)N[C@@H](CCCCN)C(=O)N[C@@H](Cc1ccc(O)cc1)C(=O)N[C@@H](CC(C)C)C(=O)N[C@@H](C)C(=O)N[C@@H](C)C(=O)N[C@H](C(=O)N[C@@H](CC(C)C)C(N)=O)C(C)C)C(C)C)[C@@H](C)O (stereo partly drawn) [PACAP(3-27)] (H-DG[Ile(3ξ)]FTDSYSRYRKQMAVKKYLAAVL-NH2) | 3000 |
| CCC(C)[C@H](NC(=O)CNC(=O)[C@H](CC(=O)O)NC(=O)[C@@H](C)NC(=O)[C@@H](N)Cc1cnc[nH]1)C(=O)N[C@@H](Cc1ccccc1)C(=O)N[C@H](C(=O)N[C@@H](CC(=O)O)C(=O)N[C@@H](CO)C(=O)N[C@@H](Cc1ccc(O)cc1)C(=O)N[C@@H](CO)C(=O)N[C@@H](CCCN=C(N)N)C(=O)N[C@@H](Cc1ccc(O)cc1)C(=O)N[C@@H](CCCN=C(N)N)C(=O)N[C@@H](CCCCN)C(=O)N[C@@H](CCC(N)=O)C(=O)N[C@@H](CCSC)C(=O)N[C@@H](C)C(=O)N[C@H](C(=O)N[C@@H](CCCCN)C(=O)N[C@@H](CCCCN)C(=O)N[C@@H](Cc1ccc(O)cc1)C(=O)N[C@@H](CC(C)C)C(=O)N[C@@H](C)C(=O)N[C@@H](C)C(=O)N[C@H](C(=O)N[C@@H](CC(C)C)C(=O)NCC(=O)N[C@@H](CCCCN)C(=O)N[C@@H](CCCN=C(N)N)C(=O)N[C@@H](Cc1ccc(O)cc1)C(=O)N[C@@H](CCCCN)C(=O)N[C@@H](CCC(N)=O)C(=O)N[C@@H](CCCN=C(N)N)C(=O)N[C@H](C(=O)N[C@@H](CCCCN)C(=O)N[C@@H](CC(N)=O)C(=O)N[C@@H](CCCCN)C(N)=O)C(C)C)C(C)C)C(C)C)[C@@H](C)O (stereo partly drawn) [[DAla2]PACAP(1-38)] | 0.7 |
| H-DSYSRYRKQMAVKKYLAAVLGKRYKQRVKNK-NH2 [PACAP(8-38)] | 30 |
| H-SRYRKQMAVKKYLAAVL-NH2 [PACAP(11-27)] | 6000 |
| CC[C@H](C)[C@H](NC(=O)CNC(=O)[C@H](CC(=O)O)NC(=O)[C@@H](CCCN=C(N)N)NC(=O)[C@@H](N)Cc1cnc[nH]1)C(=O)N[C@@H](Cc1ccccc1)C(=O)N[C@H](C(=O)N[C@@H](CC(=O)O)C(=O)N[C@@H](CO)C(=O)N[C@@H](Cc1ccc(O)cc1)C(=O)N[C@@H](CO)C(=O)N[C@@H](CCCN=C(N)N)C(=O)N[C@@H](Cc1ccc(O)cc1)C(=O)N[C@@H](CCCN=C(N)N)C(=O)N[C@@H](CCCCN)C(=O)N[C@@H](CCC(N)=O)C(=O)N[C@@H](CCSC)C(=O)N[C@@H](C)C(=O)N[C@H](C(=O)N[C@@H](CCCCN)C(=O)N[C@@H](CCCCN)C(=O)N[C@@H](Cc1ccc(O)cc1)C(=O)N[C@@H](CC(C)C)C(=O)N[C@@H](C)C(=O)N[C@@H](C)C(=O)N[C@H](C(=O)N[C@@H](CC(C)C)C(=O)NCC(=O)N[C@@H](CCCCN)C(=O)N[C@@H](CCCN=C(N)N)C(=O)N[C@@H](Cc1ccc(O)cc1)C(=O)N[C@@H](CCCCN)C(=O)N[C@@H](CCC(N)=O)C(=O)N[C@@H](CCCN=C(N)N)C(=O)N[C@H](C(=O)N[C@@H](CCCCN)C(=O)N[C@@H](CC(N)=O)C(=O)N[C@@H](CCCCN)C(N)=O)C(C)C)C(C)C)C(C)C)[C@@H](C)O [[DArg2]PACAP(1-38)] | 10 |
| CC[C@H](C)[C@H](NC(=O)CNC(=O)[C@H](CC(=O)O)NC(=O)[C@H](C)NC(=O)[C@@H](N)Cc1cnc[nH]1)C(=O)N[C@@H](Cc1ccccc1)C(=O)N[C@H](C(=O)N[C@@H](CC(=O)O)C(=O)N[C@@H](CO)C(=O)N[C@@H](Cc1ccc(O)cc1)C(=O)N[C@@H](CO)C(=O)N[C@@H](CCCNC(=N)N)C(=O)N[C@@H](Cc1ccc(O)cc1)C(=O)N[C@@H](CCCNC(=N)N)C(=O)N[C@@H](CCCCN)C(=O)N[C@@H](CCC(N)=O)C(=O)N[C@@H](CCSC)C(=O)N[C@@H](C)C(=O)N[C@H](C(=O)N[C@@H](CCCCN)C(=O)N[C@@H](CCCCN)C(=O)N[C@@H](Cc1ccc(O)cc1)C(=O)N[C@@H](CC(C)C)C(=O)N[C@@H](C)C(=O)N[C@@H](C)C(=O)N[C@H](C(=O)N[C@@H](CC(C)C)C(N)=O)C(C)C)C(C)C)[C@@H](C)O [[Ala2]PACAP(1-27)] | 0.3 |
| CCC(C)[C@H](NC(=O)CNC(=O)[C@H](CC(=O)O)NC(=O)[C@@H](Cc1ccccc1)NC(=O)[C@@H](N)Cc1cnc[nH]1)C(=O)N[C@@H](Cc1ccccc1)C(=O)N[C@H](C(=O)N[C@@H](CC(=O)O)C(=O)N[C@@H](CO)C(=O)N[C@@H](Cc1ccc(O)cc1)C(=O)N[C@@H](CO)C(=O)N[C@@H](CCCN=C(N)N)C(=O)N[C@@H](Cc1ccc(O)cc1)C(=O)N[C@@H](CCCN=C(N)N)C(=O)N[C@@H](CCCCN)C(=O)N[C@@H](CCC(N)=O)C(=O)N[C@@H](CCSC)C(=O)N[C@@H](C)C(=O)N[C@H](C(=O)N[C@@H](CCCCN)C(=O)N[C@@H](CCCCN)C(=O)N[C@@H](Cc1ccc(O)cc1)C(=O)N[C@@H](CC(C)C)C(=O)N[C@@H](C)C(=O)N[C@@H](C)C(=O)N[C@H](C(=O)N[C@@H](CC(C)C)C(=O)NCC(=O)N[C@@H](CCCCN)C(=O)N[C@@H](CCCN=C(N)N)C(=O)N[C@@H](Cc1ccc(O)cc1)C(=O)N[C@@H](CCCCN)C(=O)N[C@@H](CCC(N)=O)C(=O)N[C@@H](CCCN=C(N)N)C(=O)N[C@H](C(=O)N[C@@H](CCCCN)C(=O)N[C@@H](CC(N)=O)C(=O)N[C@@H](CCCCN)C(N)=O)C(C)C)C(C)C)C(C)C)[C@@H](C)O (stereo partly drawn) [[D-Phe2]PACAP-38] (H-H[dF]DG[Ile(3ξ)]FTDSYSRYRKQMAVKKYLAAVLGKRYKQRVKNK-NH2) | 8 |
| CC[C@H](C)[C@H](NC(=O)CNC(=O)[C@H](CC(=O)O)NC(=O)[C@H](CO)NC(=O)[C@H](Cc1cnc[nH]1)NC(C)=O)C(=O)N[C@@H](Cc1ccccc1)C(=O)N[C@H](C(=O)N[C@@H](CC(=O)O)C(=O)N[C@@H](CO)C(=O)N[C@@H](Cc1ccc(O)cc1)C(=O)N[C@@H](CO)C(=O)N[C@@H](CCCNC(=N)N)C(=O)N[C@@H](Cc1ccc(O)cc1)C(=O)N[C@@H](CCCNC(=N)N)C(=O)N[C@@H](CCCCN)C(=O)N[C@@H](CCC(N)=O)C(=O)N[C@@H](CCSC)C(=O)N[C@@H](C)C(=O)N[C@H](C(=O)N[C@@H](CCCCN)C(=O)N[C@@H](CCCCN)C(=O)N[C@@H](Cc1ccc(O)cc1)C(=O)N[C@@H](CC(C)C)C(=O)N[C@@H](C)C(=O)N[C@@H](C)C(=O)N[C@H](C(=O)N[C@@H](CC(C)C)C(N)=O)C(C)C)C(C)C)[C@@H](C)O [[AcHis1]PACAP(1-27)] | 1 |
